± gives the expanded uncertainty stated by the source.
Test: mn = molality of the nth substance listed, in mol/kg
Details: 101 kPa, Liquid, m1 = 0.512; for speed of sound: Sing-around technique in a fixed-path interferometer; for mass density: Vibrating tube method

| Structure (SMILES) | speed of sound (298.15 K) [m/s] | mass density (298.15 K) [kg/m3] | speed of sound (303.15 K) [m/s] | mass density (303.15 K) [kg/m3] | speed of sound (308.15 K) [m/s] | mass density (308.15 K) [kg/m3] | speed of sound (313.15 K) [m/s] | mass density (313.15 K) [kg/m3] | speed of sound (318.15 K) [m/s] | mass density (318.15 K) [kg/m3] | speed of sound (323.15 K) [m/s] | mass density (323.15 K) [kg/m3] |
| --- | --- | --- | --- | --- | --- | --- | --- | --- | --- | --- | --- | --- |
| O=[N+]([O-])[O-].[K+] [potassium nitrate] + O | 1517.8 ± 4.1 | 1027.98 ± 1 | 1526.8 ± 4.1 | 1026.22 ± 1 | 1536.3 ± 4.1 | 1024.1 ± 1 | 1544.4 ± 4.1 | 1022.05 ± 1 | 1551.1 ± 4.1 | 1020.2 ± 1 | 1556.6 ± 4.1 | 1018.2 ± 1 |
| O=S(=O)([O-])[O-].[K+].[K+] [potassium sulfate] + O | 1563.6 ± 4.1 | 1063.81 ± 1 | 1571.6 ± 4.1 | 1062.02 ± 1 | 1580.3 ± 4.1 | 1060.06 ± 1 | 1587.6 ± 4.1 | 1057.74 ± 1 | 1593.5 ± 4.1 | 1055.14 ± 1 | 1598.3 ± 4.1 | 1052.95 ± 1 |
